{"source": "patent US12636253B2", "about": "“Modified release compositions of nafamostat and methods of using same” (Ensysce Biosciences Inc., priority 2021, dated 2026)", "key": {"[1]": {"conditions": "cited from earlier work"}, "[2]": {"assay": "Effect of nafamostat on plasma oxycodone after oral KC-8 in rats", "assay_type": "in vivo", "conditions": "nafamostat co-administered with an oxycodone or hydromorphone derivative", "description": "The drug nafamostat mesylate was added to the formulations containing the KC-8 oxycodone-derivative. In the examples described herein, the terms “nafamostat mesylate” and “nafamostat” are used interchangeably.\nFormulations containing both KC-8 and optionally nafamostat were administered orally to rats. The KC-8 dose was 5 mg/kg and the nafamostat concentration was 0, 0.1, 0.5, or 1 mg/kg. Plasma concentrations of active oxycodone were measured at various time intervals over 24 hours after administration.\nIn contrast, additional nafamostat reduced the maximum oxycodone concentration to a peak of about 0.75 ng/ml at about 5 hours. The error bars represent one standard deviation.\nIn particular, the rats received 50 mg/kg of KC-8 and 0, 1, 5, or 10 mg/kg of nafamostat. With zero nafamostat, blood plasma concentration experienced a maximum of about 22 ng/ml at about 2 hours, wherein the concentration rapidly descended thereafter. In alignment with the data of FIG. 2, higher concentrations of nafamostat reduced the peak concentration to about 3 ng/ml at about 8 hours."}, "[3]": {"assay": "Blood hydromorphone after 1, 3, 6 or 10 pills of PF329 with or without nafamostat in rats", "assay_type": "in vivo", "conditions": "rats, 1, 3, 6 or 10 PF329 pills containing nafamostat (FIG. 5)", "text": "The rat experiments were repeated with a derivative of hydromorphone (referred to herein as PF329), which is another known pain medication. FIGS. 4 and 5 show the blood concentration of active hydromorphone (HM) after the administration of 1, 3, 6, or 10 pills, either without or with nafamostat."}}, "note": "Like-named read-outs stand apart in the source and are kept apart here."}
{"smiles": "N=C(N)c1ccc2cc(OC(=O)c3ccc(N=C(N)N)cc3)ccc2c1", "note": "[nafamostat, 6-carbamimidoylnaphthalen-2-yl 4-(diaminomethyleneamino)benzoate]", "values": [{"measurement": "safety and tolerability", "setting": "[1]; 200 mg nafamostat, healthy volunteer SAD data", "result": "safe and well tolerated"}, {"measurement": "effect on maximum concentration of active drug in blood plasma", "setting": "[2]", "result": "significantly reduced the maximum concentration of active drug in blood plasma"}, {"measurement": "change of hydromorphone blood concentration on administering more pills", "setting": "[3]", "result": "little increase"}]}
{"smiles": "COc1ccc2c3c1O[C@H]1C(OC(=O)N(C)CC(C)(C)CNC(=O)[C@H](CCCNC(=N)N)NC(=O)CNC(=O)CC(=O)O)=CC[C@@]4(O)[C@@H](C2)N(C)CC[C@]314", "note": "[KC-8, N-1-[3-(oxycodone-6-enol-carbonyl-methyl-amino)-2,2-dimethyl-propylamine]-arginine-glycine-malonic acid]", "values": [{"measurement": "safety and tolerability", "setting": "[1]; previous SAD study, doses of up to 200 mg KC-8 (80 mg oxycodone)", "result": "safe and well tolerated"}]}
